From ChEMBL document CHEMBL1201862, “PubChem BioAssay data set” (2004)
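All cell lines were grown in 96-well plates and treated with compound for 48 hours. GI50 is the concentration that inhibits growth by half.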 Calls of active or inactive are those of the source. No stated cut-off is given here; in the data, active = GI50 up to about 1.1 µM and inactive = higher.

How the values were obtained:
Assay in all cases: NCI-60 cell line screen, 48 h
DU-145 = test system: DU-145
IGROV-1 = test system: IGROV-1
RXF 393 = test system: RXF 393
HOP-92 = test system: HOP-92
SW-620 = test system: SW-620
HCT-116 = test system: HCT-116
ACHN = test system: ACHN
NCI-H460 = test system: NCI-H460
SNB-19 = test system: SNB-19
OVCAR-4 = test system: OVCAR-4
CAKI-1 = test system: CAKI-1
SNB-75 = test system: SNB-75
HL-60 = test system: HL-60
UACC-257 = test system: UACC-257
HT-29 = test system: HT-29
SF-295 = test system: SF-295
SN12C = test system: SN12C
OVCAR-8 = test system: OVCAR-8
A549 = test system: A549
M14 = test system: M14

SMILES | GI50 (DU-145) | GI50 (IGROV-1) | GI50 (RXF 393) | GI50 (HOP-92) | GI50 (SW-620) | GI50 (HCT-116) | GI50 (ACHN) | GI50 (NCI-H460) | GI50 (SNB-19) | GI50 (OVCAR-4) | GI50 (CAKI-1) | GI50 (SNB-75) | GI50 (HL-60) | GI50 (UACC-257) | GI50 (HT-29) | GI50 (SF-295) | GI50 (SN12C) | GI50 (OVCAR-8) | GI50 (A549) | GI50 (M14)
Cn1c(=S)c2nc(SCCCc3ccccc3)[nH]c2n(C)c1=O | 36.1 µM (inactive) | 35.6 µM (inactive) | 56.5 µM (inactive) | 78.3 µM (inactive) | 36.4 µM (inactive) | 21.8 µM (inactive) | 27.2 µM (inactive) | 7.14 µM (inactive) | 16.6 µM (inactive) | 13 µM (inactive) | 20.9 µM (inactive) | 22.6 µM (inactive) | 18.2 µM (inactive) | 8.24 µM (inactive) | 22.8 µM (inactive) | 11.4 µM (inactive) | 26.5 µM (inactive) | 28.2 µM (inactive) | 13.7 µM (inactive) | 17.6 µM (inactive)
NC(=O)c1ccc[n+](C2=C([N-]S(=O)(=O)c3ccccc3)C(=O)c3ccccc3C2=O)c1 | 19.1 µM (inactive) | 11.8 µM (inactive) | 15.8 µM (inactive) | 13.6 µM (inactive) | 16.6 µM (inactive) | 17.5 µM (inactive) | 13.4 µM (inactive) | 17.9 µM (inactive) | 15.8 µM (inactive) | 1.17 µM (inactive) | 22.1 µM (inactive) | 14.4 µM (inactive) | 18.5 µM (inactive) | 14.2 µM (inactive) | 17.1 µM (inactive) | 17.5 µM (inactive) | 16.9 µM (inactive) | 14.9 µM (inactive) | 19.3 µM (inactive) | 15.7 µM (inactive)
Cc1nn(C(=O)c2ccncc2)c2c1C(c1ccccc1O)SC(=N)N2 (stereo not given) | > 10 µM (inactive) | > 10 µM (inactive) | > 10 µM (inactive) | > 10 µM (inactive) | > 10 µM (inactive) | > 10 µM (inactive) | > 10 µM (inactive) | > 10 µM (inactive) | > 10 µM (inactive) | > 10 µM (inactive) | > 10 µM (inactive) | > 10 µM (inactive) | > 10 µM (inactive) | > 10 µM (inactive) | > 10 µM (inactive) | > 10 µM (inactive) | > 10 µM (inactive) | > 10 µM (inactive) | > 10 µM (inactive) | > 10 µM (inactive)
CC(=O)O[C@H]1[C@@H](OC2CCCC2(c2ccccc2)c2ccccc2)O[N+]([O-])=C[C@@H]1c1ccccc1 (stereo not given in full) | 5.75 µM (inactive) | 2.79 µM (inactive) | 2.82 µM (inactive) | 5.92 µM (inactive) | 3.14 µM (inactive) | 3.24 µM (inactive) | 5.07 µM (inactive) | 17.9 µM (inactive) | 15.6 µM (inactive) | 6.46 µM (inactive) | 4.85 µM (inactive) | 5.55 µM (inactive) | 2.01 µM (inactive) | 9.25 µM (inactive) | 2.51 µM (inactive) | 8.13 µM (inactive) | 4.66 µM (inactive) | 2.47 µM (inactive) | 9.33 µM (inactive) | 6.18 µM (inactive)
Cc1cc2nc(C=C(C(F)(F)F)C(F)(F)F)sc2cc1C | 3.37 µM (inactive) | 2.21 µM (inactive) | 1.16 µM (inactive) | 4.66 µM (inactive) | 0.957 µM (active) | 1.1 µM (active) | 2.99 µM (inactive) | 3.58 µM (inactive) | 3.44 µM (inactive) | 2.99 µM (inactive) | 2.64 µM (inactive) | 1.16 µM (inactive) | 0.482 µM (active) | 4.55 µM (inactive) | 0.929 µM (active) | 3.15 µM (inactive) | 0.501 µM (active) | 0.908 µM (active) | 4.02 µM (inactive) | 0.782 µM (active)
CC1=NC(=N)N=C(C)C1/N=N/c1ccc2[nH]c(C)nc2c1 (stereo not given) | > 100 µM (inactive) | > 100 µM (inactive) | > 100 µM (inactive) | > 100 µM (inactive) | > 100 µM (inactive) | > 100 µM (inactive) | > 100 µM (inactive) | > 100 µM (inactive) | > 100 µM (inactive) | > 100 µM (inactive) | > 100 µM (inactive) | > 100 µM (inactive) | > 100 µM (inactive) | > 100 µM (inactive) | > 100 µM (inactive) | > 100 µM (inactive) | > 100 µM (inactive) | > 100 µM (inactive) | > 100 µM (inactive) | > 100 µM (inactive)
Cc1ccccc1C(=O)N/N=C/c1ccc(Sc2nccn2C)c([N+](=O)[O-])c1 | 88.3 µM (inactive) | 35.6 µM (inactive) | 74.3 µM (inactive) | 14.3 µM (inactive) | > 100 µM (inactive) | 84.3 µM (inactive) | > 100 µM (inactive) | 49 µM (inactive) | > 100 µM (inactive) | 56.2 µM (inactive) | 78.9 µM (inactive) | 63.2 µM (inactive) | 44.3 µM (inactive) | > 100 µM (inactive) | 41.3 µM (inactive) | 58.5 µM (inactive) | > 100 µM (inactive) | 72.1 µM (inactive) | > 100 µM (inactive) | > 100 µM (inactive)
C/C=C/[P+](c1ccccc1)(c1ccccc1)c1ccccc1 | 1.15 µM (inactive) | 2.11 µM (inactive) | 6.14 µM (inactive) | 0.738 µM (active) | 0.48 µM (active) | 0.433 µM (active) | 4.56 µM (inactive) | 1.36 µM (inactive) | 0.299 µM (active) | 2.77 µM (inactive) | > 68.1 µM (inactive) | 3.48 µM (inactive) | 0.78 µM (active) | 0.295 µM (active) | 0.914 µM (active) | 2.26 µM (inactive) | 1.79 µM (inactive) | 0.426 µM (active) | 0.548 µM (active) | 4.92 µM (inactive)
C=C1C(=O)O[C@@H]2/C=C(/C)[C@@H](OC(C)=O)C[C@@H](O)/C(C)=C\[C@@H](OC(=O)[C@]3(C)O[C@@H]3C)[C@@H]12 | 14.6 µM (inactive) | 16.2 µM (inactive) | 15.5 µM (inactive) | 12.7 µM (inactive) | 5.98 µM (inactive) | 3.89 µM (inactive) | 11.8 µM (inactive) | 26.3 µM (inactive) | 47.4 µM (inactive) | 21.9 µM (inactive) | 3.48 µM (inactive) | 19.5 µM (inactive) | 2.39 µM (inactive) | 15.7 µM (inactive) | 15.8 µM (inactive) | 50.9 µM (inactive) | 12.3 µM (inactive) | 13.1 µM (inactive) | 31.2 µM (inactive) | 12.5 µM (inactive)
CN(C)Cc1cc(C(=O)/C=C/c2ccc(Cl)cc2Cl)cc(CN(C)C)c1O | 4.73 µM (inactive) | 2.72 µM (inactive) | 2.51 µM (inactive) | 3.94 µM (inactive) | 2.81 µM (inactive) | 3.07 µM (inactive) | 2.06 µM (inactive) | 1.46 µM (inactive) | 4.12 µM (inactive) | 2.22 µM (inactive) | 2.36 µM (inactive) | 2.95 µM (inactive) | 1.96 µM (inactive) | 5.11 µM (inactive) | 2.07 µM (inactive) | 3.34 µM (inactive) | 1.78 µM (inactive) | 2.33 µM (inactive) | 2.89 µM (inactive) | 2.75 µM (inactive)
